The record followed here is patent EP4592274A1, “RADIOLABELED TYROSINE DERIVATIVE AND APPLICATION THEREOF” (OSAKA UNIVERSITY, priority 2022, dated 2024).

For data set [1], the system named is human pancreatic cancer cell line, PANC1. Put plainly: Measurement of accumulated amounts of 211At-labeled compounds in tumors of PANC1 transplanted mice (Test Example 5). Format: in vivo. The conditions noted are these: 0.1 MBq per mouse via tail vein. The procedure:
Radiation doses before and after the administration were measured, and a difference between them was defined as an injected dose (ID). Ten minutes and one hour after administration, the mice were anesthetized by isoflurane inhalation, the tumors were isolated by autopsy in chronological order, and their radiation doses and weights were measured using a gamma counter (2480 Wizard^2, PerkinElmer) and a semimicro scale (Shimadzu Corporation, readability 10 µg), respectively. For comparison between accumulated amounts, accumulated amounts per unit amount (% ID/g) were calculated.

A further data set deals with A549. Put plainly: Therapeutic test on mice subcutaneously transplanted with A549 (Test Example 9). Type of data set: in vivo. The conditions noted are these: A549, 30 days after administration, 0.5 MBq per mouse; compared with 211At-AAMT.
The nature of data set [2]: Thin-layer chromatography (TLC) analysis of decomposition after production. Format: physicochemical. To be noted: 24 hours after purification; in sodium ascorbate aqueous solution (final concentration 1%). Here is the method: The crude product solution (1 µL) was analyzed by thin-layer chromatography (TLC). The sample was spotted on a thin-layer plate (silica gel 60F254), and a mixed solvent of acetonitrile/water (2/1) was used as a developing solvent. The thin-layer plate was exposed to an imaging plate (BAS IP MS 2025E, GE Healthcare) for about 15 min, and then analyzed by a bioimage analyzer (Tyhoon™ FLA-7000, Cytiva). The results are shown in Fig.2. ^211At-AAMT-OMe in the crude product solution was detected at Rf 0.80, and the radiochemical yield (RCY) was 81.3%.
Before purification, immediately after production, 3 hours after production, and 24 hours after production, ^211At-AAMT-OMe was analyzed by thin-layer chromatography (TLC) in the same manner as described above.
24 hours after production, (R)-^211At-AAMT-OMe was analyzed by thin-layer chromatography (TLC) in the same manner as described above.
24 hours after production, ^211At-AAMT-OEt was analyzed by thin-layer chromatography (TLC) in the same manner as described above.
24 hours after production, ^211At-AAMT-OPr was analyzed by thin-layer chromatography (TLC) in the same manner as described above.
24 hours after production, ^211At-AAMPhe-OMe was analyzed by thin-layer chromatography (TLC) in the same manner as described above.

Molecules are shown by their SMILES.

Description for A549: The mice were observed over time until engraftment of tumors was confirmed (50 to 100 mm^3), and when the tumors reached a predetermined size, ^211At-AAMT-OMe or ^211At-AAMT diluted with water for injection to 0.5 MBq/0.2 mL per mouse was administered via tail vein. Thirty days after administration, the mice were euthanized and tumor masses were isolated. After fat tissue and the like were trimmed off, the wet weights of the isolated tumor masses were measured to make a histogram.

As to `COc1ccc(C[C@](C)(N)C(=O)O)cc1[211At]` [^211At-AAMT-OMe, (S)-3-astato(^211At)-O-methyl-α-methyltyrosine], the tumor accumulation in data set [1] (10 minutes after administration) was found to be 2.59 %ID/g; in data set [1] (1 hour after administration) it was 3.78 %ID/g. Besides, the “anti-tumor effect (tumor weight)” value with A549 is recorded as “comparable”. Besides, in data set [2], the “decomposition (TLC)” value is on record as “no decomposition”.
